Source: US10583128B2, “Treatment of diseases related to alpha subunits of sodium channels, voltage-gated (SCNxA) with small molecules” (CuRNA, Inc., priority 2011, dated 2020)
Where a name gives a salt, the structure may show the parent alone.

What was measured:
SCN1A mRNA [1] = experiment: Upregulation of SCN1A mRNA in primary human skin fibroblasts carrying a Dravet-associated mutation (real time PCR); type: cell-based; conditions: compound 1 uM, 24-48 h, 18S-normalized vs vehicle (DMSO), average upregulation; for fold induction at 1 µM: Homo sapiens, Skin fibroblast, read-out: fold increase in SCN1A mRNA levels, SCN1A fibroblasts, Avg
Procedure: (§1) Transfer of a small molecule into a host cell or organism and determination of its effect upon RNA or protein up-regulation or down regulation can be assessed by several methods well known in the art. For example, SCN1A fibroblasts and/or keratinocytes or other cell types as desired are selected and grown for the specific assays herein. One day before the experiment cells are plated at the density of approximately 4×10^4/well into 24 well plates in Growth Media and incubated at 37° C. and 5% CO2 overnight. Next day, the media in the 24 well plates is changed to fresh Growth Media (1 ml/well) and the cells are dosed with small compounds. Compound stocks are prepared in DMSO at a concentration of 1 mM. At the time of the experiment 1 mM stock solutions are diluted to the concentration of 1 uM in Growth Media. One in 1000 dilution of DMSO is used for the control wells. After 24-48 h incubation at 37° C. and 5% CO2 the media is removed and RNA is extracted from the cells using SV Total RNA Isolation System from Promega (cat # Z3105) following the manufacturers' instructions. Six hundred nanograms of purified total RNA is added to the reverse transcription reaction performed using SuperScript VILO cDNA Synthesis Kit from Invitrogen (cat #11754-250) as described in the manufacturer's protocol. The cDNA from this reverse transcription reaction is used to monitor gene expression by real time PCR using ABI Taqman Gene Expression Mix (cat #4369510) and primers/probes designed by ABI (assays Hs00374696_ml, Hs00897350_ml or Hs00897341_ml for human SCN1A). The following PCR cycle is used: 50° C. for 2 min, 95° C. for 10 min, 40 cycles of (95° C. for 15 seconds, 60° C. for 1 min) using StepOne Plus Real Time PCR system (Applied Biosystems). The assay for 18S is manufactured by ABI (cat #4319413E). Fold change in gene expression after treatment with compounds is calculated based on the difference in 18S-normalized dCt values between compound- and vehicle-treated samples.
In Example 1 primary human skin fibroblasts carrying Dravet-associated SCN1A mutation were treated with small compounds at a final concentration of 1 uM.
Primary human skin fibroblasts carrying Dravet-associated SCN1A mutation introduced into culture by Dr. N. Kenyon (University of Miami) were grown in Growth Media consisting of a-MEM (Gibco, cat: 12561-056)+10% FBS (Mediatech, cat: 35-015 CV)+1% Antimycotic-Antibiotic (Gibco, cat: 15240-062) at 37° C. and 5% CO2. One day before the experiment cells were plated at the density of approximately 4×10^4/well into 24 well plates in Growth Media and incubated at 37° C. and 5% CO2 overnight. Next day, the media in the 24 well plates was changed to fresh Growth Media (I ml/well) and the cells were dosed with small compounds. All compounds were available from commercial sources. Compound stocks were prepared in DMSO at a concentration of 1 mM. At the time of the experiment 1 mM stock solutions were diluted to the concentration of 1 uM in Growth Media. One in 1000 dilution of DMSO was used for the control wells. After 24-48 h incubation at 37° C. and 5% CO2 the media was removed and RNA was extracted from the cells using SV Total RNA Isolation System from Promega (cat # Z3105) following the manufacturers' instructions. Six hundred nanograms of purified total RNA was added to the reverse transcription reaction performed using SuperScript VILO cDNA Synthesis Kit from Invitrogen (cat #11754-250) as described in the manufacturer's protocol. The cDNA from this reverse transcription reaction was used to monitor gene expression by real time PCR using ABI Taqman Gene Expression Mix (cat #4369510) and primers/probes designed by ABI (assays Hs00374696_ml, Hs00897350_ml or Hs00897341_ml for human SCN1A). Results obtained using all three assays were very similar (data not shown). […]

SCN1A mRNA [2] = experiment: Upregulation of SCN1A mRNA in adult primary human keratinocytes (real time PCR); type: cell-based; conditions: compound 1 uM, 24-48 h, 18S-normalized vs vehicle (DMSO), average upregulation; for fold induction at 1 µM: Homo sapiens, Keratinocyte, read-out: fold increase in SCN1A mRNA levels, Keratinocytes, Avg
Procedure: as §1
In Example 2 primary human keratinocytes were treated with small compounds at a final concentration of 1 uM.
Adult primary human keratinocytes from PromoCell (Heidelberg, Germany, cat # C-12003) or LifeLine Cell Technology (Frederick, Md., cat # FC-0025) were grown in Growth Media supplied by the manufacturers at 37° C. and 5% CO2. One day before the experiment cells were plated at the density of approximately 4×10^4/well into 24 well plates in Growth Media and incubated at 37° C. and 5% CO2 overnight. Next day, the media in the 24 well plates was changed to fresh Growth Media (1 ml/well) and the cells were dosed with small compounds. All compounds were available from commercial sources.
Compound stocks were prepared in DMSO at a concentration of 1 mM. At the time of the experiment 1 mM stock solutions were diluted to the concentration of 1 uM in Growth Media. One in 1000 dilution of DMSO was used for the control wells. After 24-48 h incubation at 37° C. and 5% CO2 the media was removed and RNA was extracted from the cells using SV Total RNA Isolation System from Promega (cat # Z3105) following the manufacturers' instructions. Six hundred nanograms of purified total RNA was added to the reverse transcription reaction performed using SuperScript VILO cDNA Synthesis Kit from Invitrogen (cat #11754-250) as described in the manufacturer's protocol. The cDNA from this reverse transcription reaction was used to monitor gene expression by real time PCR using ABI Taqman Gene Expression Mix (cat #4369510) and primers/probes designed by ABI (assays Hs00374696_ml, Hs00897350_ml or Hs00897341_ml for human SCN1A). Results obtained using all three assays were very similar (data not shown). The following PCR cycle was used: 50° C. for 2 min, 95° C. for 10 min, 40 cycles of (95° C. for 15 seconds, 60° C. for 1 min) using StepOne Plus Real Time PCR system (Applied Biosystems). The assay for 18S was manufactured by ABI (cat #4319413E). […]

CN1C(=O)CN=C(c2ccccc2)c2cc([N+](=O)[O-])ccc21 [Nimetazepam, 2-methyl-9-nitro-6-phenyl-2,5-diazabicyclo[5.4.0]undeca-5,8,10,12-tetraen-3-one]
fold induction at 1 µM (SCN1A mRNA [1]): 2.03 | fold induction at 1 µM (SCN1A mRNA [2]): 2.47

COc1ccc2[nH]c([S+]([O-])Cc3ncc(C)c(OC)c3C)nc2c1 (stereo not shown) [Omeprazole, 6-methoxy-2-((4-methoxy-3,5-dimethylpyridin-2-yl)methylsulfinyl)-1H-benzo[d]imidazole Mg]
fold induction at 1 µM (SCN1A mRNA [1]): 2.22 | fold induction at 1 µM (SCN1A mRNA [2]): 2.46

CC(=O)N1CCN(c2ccc(OCC3COC(Cn4ccnc4)(c4ccc(Cl)cc4Cl)O3)cc2)CC1 [Ketoconazole, 1-[4-(4-{[(2R,4S)-2-(2,4-Dichlorophenyl)-2-(1H-imidazol-1-ylmethyl)-1,3-dioxolan-4-yl]methoxy}phenyl)piperazin-1-ylethan-1-one]
fold induction at 1 µM (SCN1A mRNA [1]): 2.95 | fold induction at 1 µM (SCN1A mRNA [2]): 2.73

CCN(CC)C(=O)C1(c2ccccc2)CC1CN [Milnacipran, 1R(S),2S(R)[-2-(aminomethyl)-N,N-diethyl-1-phenylcyclopropanecarboxamide hydrochloride]
fold induction at 1 µM (SCN1A mRNA [1]): 4.37 | fold induction at 1 µM (SCN1A mRNA [2]): 2.72

CS(=O)(=O)Nc1ccc(Cc2noc(-c3ccc4[nH]cc(CCN)c4c3)n2)cc1 [L-694,247, Methanesulfonamide,N-[4-[[5-[3-(2-aminoethyl)-1H-indol-5-yl]-1,2,4-oxadiazol-3-yl]methyl]phenyl]]
fold increase in SCN1A mRNA levels, SCN1A fibroblasts, Avg (SCN1A mRNA [1]): 2.20 fold | fold increase in SCN1A mRNA levels, Keratinocytes, Avg (SCN1A mRNA [2]): 1.68 fold

O=c1c2ccccc2[se]n1-c1ccccc1 [Ebselen, 2-Phenyl-1,2-benzoselenazol-3-one]
fold induction at 1 µM (SCN1A mRNA [1]): 2.81 | fold induction at 1 µM (SCN1A mRNA [2]): 2.67

COc1ccc(CN2CCN(C(c3ccc(F)cc3)c3ccc(F)cc3)CC2)c(OC)c1OC [Lomerizine, 1-[bis(4-fluorophenyl)methyl]-4-[2,3,4-trimethoxyphenylmethyl]Dihydrochloride]
fold induction at 1 µM (SCN1A mRNA [1]): 2.39 | fold induction at 1 µM (SCN1A mRNA [2]): 3.47

C[C@H]1CCC[C@H](O)CCCCCc2cc(O)cc(O)c2C(=O)O1 [Zeranol, (3S,7R)-7,14,16-trihydroxy-3-methyl-3,4,5,6,7,8,9,10,11,12-decahydro-1H-2-benzoxacyclotetradecin-1-one]
fold induction at 1 µM (SCN1A mRNA [1]): 2.6 | fold induction at 1 µM (SCN1A mRNA [2]): 4.51

Cc1nc2n(c(=O)c1CCN1CCC(c3noc4cc(F)ccc34)CC1)CCCC2 [Risperidone, 3-[2-[4-(6-flouro-1,2-benzisoxazol-3-yl)-1-piperidinyl]-ethyl]-6,7,8,9-tetrahydro-2-methyl-4H-pyrido[,2-a]pyrimidin-4-one]
fold induction at 1 µM (SCN1A mRNA [1]): 3.48 | fold induction at 1 µM (SCN1A mRNA [2]): 3.02

CN1CC(=O)N2[C@H](c3ccc4c(c3)OCO4)c3[nH]c4ccccc4c3C[C@@H]2C1=O [Tadalafil, (6R-trans)-6-(1,3-benzodioxol-S-yl)-2,3,6,7,12,12a-hexahydro-2-methyl-pyrazino[1′,2′:1,6]pyrido[3,4-b]indole-1,4-dione]
fold induction at 1 µM (SCN1A mRNA [1]): 2.73 | fold induction at 1 µM (SCN1A mRNA [2]): 2.79

CC(N=C(NC#N)Nc1ccncc1)C(C)(C)C (stereo not shown) [Pinacidil, N-cyano-N′pyridin-4-yl-N″-(1,2,2-trimethylpropyl)guanidine]
fold induction at 1 µM (SCN1A mRNA [1]): 3.48

CN[C@H]1CC[C@@H](c2ccc(Cl)c(Cl)c2)c2ccccc21 [Sertraline, (1S,4S)-4-(3,4-dichlorophenyl)-N-methyl-1,2,3,4-tetrahydronaphthalen-1-amine]
fold induction at 1 µM (SCN1A mRNA [1]): 1.79 | fold induction at 1 µM (SCN1A mRNA [2]): 5.18

CCOc1cc(N)c(Cl)cc1C(=O)NCC1CN(Cc2ccc(F)cc2)CCO1 (stereo not shown) [Mosapride]
fold induction at 1 µM (SCN1A mRNA [1]): 1.9 | fold induction at 1 µM (SCN1A mRNA [2]): 1.47

CCOC(=O)C1=C(C)NC(C)=C(C(=O)OC)C1c1cccc([N+](=O)[O-])c1 (racemic) [Nitrendipine, (RS)-ethyl methyl 2,6-dimethyl-4-(3-nitrophenyl)-1,4-dihydropyridine-3,5-dicarboxylate]
fold induction at 1 µM (SCN1A mRNA [1]): 2.13

COc1ccc(-c2oc3c(CC=C(C)C)c(O[C@@H]4O[C@H](CO)[C@@H](O)[C@H](O)[C@H]4O)cc(O)c3c(=O)c2O[C@@H]2O[C@@H](C)[C@H](O)[C@@H](O)[C@H]2O)cc1 [Icariin, 5-hydroxy-2-(4-methoxyphenyl)-8-(3-methylbut-2-enyl)-7-[(2S,3R,4S,5S,6R)-3,4,5-trihydroxy-6-(hydroxymethyl)oxan-2-yl]oxy-3-[(2S,3R,4R,5R,6S)-3,4,5-trihydroxy-6-methyloxan-2-yl]oxychromen-4-one]
fold induction at 1 µM (SCN1A mRNA [1]): 2.38 | fold induction at 1 µM (SCN1A mRNA [2]): 2.29

CC(C)c1ccc2oc3nc(N)c(C(=O)O)cc3c(=O)c2c1 [Amlexanox, 2-amino-7-isopropyl-5-oxo-5H-chromeno[2,3-b]pyridine-3-carboxylic acid]
fold induction at 1 µM (SCN1A mRNA [1]): 2.01 | fold induction at 1 µM (SCN1A mRNA [2]): 5.41

COC(=O)C1=C(C)NC(C)=C(C(=O)OC2CCCN(Cc3ccccc3)C2)C1c1cccc([N+](=O)[O-])c1 [Benidipine, 5-Omethyl-3O-[(3R)-1-(phenylmethyl)-piperidin-3-yl]2,6-dimethyl-4-(3-nitrophenyl)-1,4-dihydropyridine-3,5-dicarboxylate]
fold induction at 1 µM (SCN1A mRNA [1]): 3.01 | fold induction at 1 µM (SCN1A mRNA [2]): 1.69

CCc1nn(CCCN2CCN(c3cccc(Cl)c3)CC2)c(=O)n1CCOc1ccccc1 [Nefazadone, 2-[3-[4-(3-chlorophenyl)-1-piperazinyl]propyl]-5-ethyl-2,4-dihydro-4-(2-phenoxyethyl)-3H-1,2,4-triazol-3-one monohydrochloride]
fold induction at 1 µM (SCN1A mRNA [1]): 2.39 | fold induction at 1 µM (SCN1A mRNA [2]): 4.53

C[C@]12Cc3c[nH]nc3C[C@@H]1CC[C@@H]1[C@@H]2CC[C@@]2(C)[C@H]1CC[C@]2(C)O [Stanozolol, 17β-Hydroxy-17-methyl-5α-androstano[3,2-c]-pyrazole]
fold induction at 1 µM (SCN1A mRNA [1]): 1.75 | fold induction at 1 µM (SCN1A mRNA [2]): 1.76

Cc1cccc(Nc2ccncc2S(=O)(=O)NC(=O)NC(C)C)c1 [Torsemide]
fold induction at 1 µM (SCN1A mRNA [1]): 3.7
